# Assay results reported in US20140221301A1, “COMBINATION TREATMENT FOR CANCER” (priority 2011, published 2014).
# How the values were obtained:
# XIAP, grp78 = test: Immunoblotting of cytosolic-ribosome translated proteins; assay type: cell-based, human; conditions: TEX, OCI-AML2, primary AML cells
# Method: FIG. 4. […] (A) Cells from TEX, OCI-AML2 and two primary AML patients were treated with increasing concentrations (2.5 μM and 5 μM) of tigecycline for 36 and 48 hours of tigecycline. Total proteins were extracted and analyzed by western blotting for Cox-1, Cox-2, Cox-4, grp78, XIAP, actin and tubulin. (B) TEX and AML patient cells were treated with increasing concentrations (2.5 μM and 5 μM) of tigecycline. Cox-1, Cox-2, and Cox-4 mRNA expression relative 18S was determined by quantitative RT-PCR. Data is shown as mean±SD. (C) TEX cells were treated with increasing concentrations of tigecycline and chloramphenicol (CAP) for 72 hours. Complex I, II and IV enzyme activity relative to citrate synthase activity was determined as described in materials and methods. (D) Cells from TEX, primary AML patients, and normal donors were treated with increasing concentrations of tigecycline. Mitochondrial membrane potential (ΔΨ) was determined by staining cells with JC-1 dye, and flow cytometry analysis (Red/Green ratio). Reactive oxygen species generation (ROS) was determined by staining with h2-DCFDA and Dihydroethidium (DHE).
# Total cell lysates were prepared from cells as described previously^32. […] Protein concentrations were measured by the DC Protein assay. […]
# M9-ENL1 cells = test: Chemical screen, MTS assay, M9-ENL1 cells; assay type: cell-based, human; conditions: 10 μM, 48 hours
# From the text: To identify compounds active against leukemia stem cells, a library of drugs (n=312) with well-characterized pharmacokinetics and toxicology and a wide therapeutic window was compiled. This library was then screened to identify agents that reduced the viability of TEX and M9-ENL1 cells. TEX and M9-ENL1 cells were derived from lineage-depleted human cord blood cells (Lin-CB) transduced with TLS-ERG or MLL-ENL oncogenes, respectively, and, as shown previously, display properties of stem cells including hierarchal differentiation and marrow repopulation^14, 15. In this screen, TEX and M9-ENL1 cells were treated with aliquots of the compounds. After incubation, cell growth and viability was measured by the MTS assay. From this screen, tigecycline was identified.
# TEX, and M9-ENL-1 cells were seeded into 96-well polystyrene tissue culture plates (Corning). […] 72 (TEX) and 48 (M9-ENL-1) hours after incubation, cell growth and viability was measured by MTS assay. […]
# Cell growth and viability was assessed by the MTS assay (Promega, Madison, Wis.) according to the manufacturer's instructions. Apoptosis and cell death was measured by Annexin V-fluroscein isothiocyanate (FITC; Biovision Research Products, Mountain View, Calif.), propidium iodide staining and flow cytometry according to the manufacturer's instructions and as previously described^30. […]
# [1] = test system: OCI-AML2 human leukemia cells; assay type: in vivo, SCID mice
# Method: FIG. 3. Tigecycline has anti-leukemia activity in vivo. (A, B) Human leukemia cells (OCI-AML2) were injected subcutaneously into the flank of SCID mice. Seven days after injection, once tumors were palpable, mice were treated with tigecycline (50 mg/kg or 100 mg/kg twice daily by i.p. injection) or vehicle control (n=10 per group). Fourteen days after injection of cells, mice were sacrificed, tumors excised and the volume and mass of the tumors were measured. The tumor mass and the mean volume+SD are shown. Differences in tumor volume and mass were analyzed by an unpaired t-test: *p<0.001. (C) Tumours from two control mice, and three tigecycline-treated mice were excised after 5 days of treatment and total proteins were extracted and analyzed by western blotting for Cox-1, Cox-2, Cox-4, and tubulin. (D) Primary cells from three AML patients were injected intra-femorally into the right femur of female sub-lethally irradiated NOD/SCID mice. Three weeks after injection mice were treated with tigecycline (100 mg/kg by i.p. injection daily) or vehicle control (n=10 per group) for three weeks. Following treatment, human leukemia cell engraftment in the injected right femur was measured by FACS analysis for human CD45^+CD19^−CD33^+ cells. Data represent mean±SD of engrafted human cells. Cells from one patient experiment were used to assess secondary engraftment in a second generation of NOD/SCID mice. Equal numbers of viable leukemia cells from bone marrow of control and tigecycline treated mice were injected into irradiated NOD/SCID mice, which were not treated with tigecycline. Six weeks later, human leukemia cell engraftment in the injected right femur was measured by FACS analysis for human CD45^+CD19^−CD33^+cells. (*p<0.005, Student's t-test).
# OCI-AML2 human leukemia cells (1×10^6) were injected subcutaneously into the flanks of SCID mice (Ontario Cancer Institute, Toronto, ON). Seven days after injection, once tumours were palpable, mice were treated with tigecycline twice daily (50 mg/kg or 100 mg/kg by i.p. injection) or vehicle control (n=10 per group) for 14 days. Tumor volume (tumor length x width^2×0.5236) was measured three times a week using calipers. Twenty-one days after injection of cells, mice were sacrificed, tumors excised and the volume and mass of the tumors were measured.
# Given the effects of tigecycline as a potential anti-leukemia agent, tigecycline in mouse models of leukemia was evaluated. To evaluate the anti-tumor efficacy of tigecycline in vivo, human OCI-AML2 leukemia cells were injected into the flank of SCID mice. […] Tumor volume and mass were measured over time (FIG. 3A, B). […]
# [2] = 50 mg/kg or 100 mg/kg twice daily i.p., 14 days
structure (smiles),measurement,setting,value
CN(C)c1cc(NC(=O)CNC(C)(C)C)c(O)c2c1C[C@H]1C[C@H]3[C@H](N(C)C)C(O)=C(C(N)=O)C(=O)[C@@]3(O)C(O)=C1C2=O [tigecycline],expression of XIAP or grp78,"XIAP, grp78",did not alter
same,cell growth and viability in screen,M9-ENL1 cells,cell growth inhibitor
same,expression of Cox-1 and Cox-2 relative to Cox-4 in tumours,"[1]; 50 mg/kg bid for 5 days, western blotting",preferential decreased expression
same,decrease of tumor mass compared to vehicle control,[1]; [2],up to 70%
same,decrease of tumor volume compared to vehicle control,[1]; [2],up to 70%
same,toxicity in treated mice,"[1]; mouse, in vivo",No evidence of toxicity
